The supplement of paper PMC10307832

What was measured:
Assay in all cases: relative viability (nuclei count vs DMSO), 5 days (fraction); higher = more cells survive
Alpelisib + Crizotinib = compound: Cc1nc(NC(=O)N2CCC[C@H]2C(N)=O)sc1-c1ccnc(C(C)(C)C(F)(F)F)c1 [Alpelisib] + C[C@@H](Oc1cc(-c2cnn(C3CCNCC3)c2)cnc1N)c1c(Cl)ccc(F)c1Cl [Crizotinib] (partner 1 µM)
How it was run: (§1)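 Relative viability was taken as the ratio of nuclei in treated wells to nuclei in vehicle wells. Lung cancer cell lines in 1536-well plates received compounds by pin tool one day after seeding, either one drug alone or a fixed anchor-drug dose plus five library-drug doses (not always all listed) in √10 steps. Nuclei were counted on 4× images after 5 days of treatment, and values are medians of duplicate plates.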

Vemurafenib + OSI-027 = compound: CCCS(=O)(=O)Nc1ccc(F)c(C(=O)c2c[nH]c3ncc(-c4ccc(Cl)cc4)cc23)c1F [Vemurafenib] + COc1cccc2cc(-c3nc([C@H]4CC[C@H](C(=O)O)CC4)n4ncnc(N)c34)[nH]c12 [OSI-027] (partner 0.5 µM)
How it was run: as §1

Alpelisib + Linsitinib = compound: Cc1nc(NC(=O)N2CCC[C@H]2C(N)=O)sc1-c1ccnc(C(C)(C)C(F)(F)F)c1 [Alpelisib] + C[C@]1(O)C[C@@H](c2nc(-c3ccc4ccc(-c5ccccc5)nc4c3)c3c(N)nccn32)C1 [Linsitinib] (partner 1 µM)
How it was run: as §1

Vemurafenib + Crizotinib = compound: CCCS(=O)(=O)Nc1ccc(F)c(C(=O)c2c[nH]c3ncc(-c4ccc(Cl)cc4)cc23)c1F [Vemurafenib] + C[C@@H](Oc1cc(-c2cnn(C3CCNCC3)c2)cnc1N)c1c(Cl)ccc(F)c1Cl [Crizotinib] (partner 1 µM)
How it was run: as §1

Cell Line	relative viability (Alpelisib + Crizotinib; first compound 0.04 µM)	relative viability (Alpelisib + Crizotinib; first compound 0.1265 µM)	relative viability (Alpelisib + Crizotinib; first compound 0.4 µM)	relative viability (Alpelisib + Crizotinib; first compound 1.265 µM)	relative viability (Alpelisib + Crizotinib; first compound 4 µM)	relative viability (Vemurafenib + OSI-027; first compound 0.03162 µM)	relative viability (Vemurafenib + OSI-027; first compound 0.1 µM)	relative viability (Vemurafenib + OSI-027; first compound 0.3162 µM)	relative viability (Vemurafenib + OSI-027; first compound 1 µM)	relative viability (Alpelisib + Linsitinib; first compound 0.04 µM)	relative viability (Alpelisib + Linsitinib; first compound 0.1265 µM)	relative viability (Alpelisib + Linsitinib; first compound 0.4 µM)	relative viability (Alpelisib + Linsitinib; first compound 1.265 µM)	relative viability (Alpelisib + Linsitinib; first compound 4 µM)	relative viability (Vemurafenib + Crizotinib; first compound 0.03162 µM)	relative viability (Vemurafenib + Crizotinib; first compound 0.1 µM)	relative viability (Vemurafenib + Crizotinib; first compound 0.3162 µM)	relative viability (Vemurafenib + Crizotinib; first compound 1 µM)
201T	0.985	1	1.07	0.98	0.936	0.757	0.78	0.776	0.497	0.93	0.936	0.989	0.806	0.917	0.997	0.993	1.09	1.02
A549	0.698	0.707	0.625	0.389	0.405					0.647		0.577	0.5	0.445	0.704	0.717	0.743	0.717
A-427	0.775	0.835	1.11	0.773	0.653	0.488	0.404	0.453	0.466	1.11	1.14	1.22	1.01	1.09	0.819	0.983	0.919	0.815
ABC-1	1.19	1.28	1.04	0.886	0.713	0.417	0.435	0.539	0.474	0.716	0.695	0.86	0.847	0.709	1.01	1.21	1.2	0.997
BEN	0.956	0.95	1.04	0.884	0.866	0.27	0.267		0.265	0.859	0.857	1.14	0.828	0.959	0.812	0.9	0.603	0.817
CAL-12T	0.66	0.53	0.711	0.556	0.596	0.542	0.461	0.801	0.503	0.801	0.67	0.814	0.784	0.76	0.759	0.644	0.592	0.689
COR-L23	0.622	0.613	0.698	0.478	0.459	0.662	0.777	0.579	0.646	0.836	0.889	0.856	0.69	0.592	0.6	0.524	0.597	0.59
COR-L 105	0.697	1	0.879	0.691	0.695	0.649			0.582	1.04	0.874	0.976	0.902	0.841	0.623		0.661	1.13
Calu-6	0.772	0.691	0.911	0.753	0.559					0.906	0.978	1.03	0.806	0.912	0.595	0.808	0.783	0.668
ChaGo-K-1	1.13		1.15	0.988	0.841	0.535	0.549	0.419	0.487						1.07	1.14		1.13
EBC-1	0.229	0.177	0.204	0.199	0.177					0.81	0.822	1.02	0.825	0.793	0.188	0.19	0.197	0.182
EKVX	0.956	0.918	1.06	0.749	0.619	0.634		0.791	0.688	0.923	0.941	1.11	0.901	0.821	0.842		1	0.968
EMC-BAC-2	0.752	0.778	0.753	0.608	0.496	0.38	0.382	0.22	0.329	0.773	0.811	0.79	0.657	0.678	0.703	0.729	0.678	0.681
EPLC-272H	0.75	0.788	1.09	0.713	0.653	0.268	0.219	0.275	0.243	1.1	0.977	1.34	0.937	0.893	0.822	0.809	0.89	0.841
H3255	0.85	1.05	1.16	0.631	0.675	0.582		0.583	0.565	0.979	1.01	1.07	0.715	0.794	0.883		0.865	0.808
HARA	1.04	1.03	1.15	0.845	0.622	0.428	0.186	0.407	0.229	0.885	0.947	1.08	0.719	0.358	1.04		1.09	1.07
HCC-15	0.814	0.798	0.901	0.668	0.651	0.648	0.73		0.52	0.892	0.873	0.878	0.863	0.767	0.75	0.803	0.699	0.81
HCC-44	0.78	0.723	0.833	0.773	0.634	0.419	0.361		0.426	0.707	0.7	0.738	0.582	0.543	0.749	0.867	0.809	0.813
HCC-78	0.289	0.294	0.318	0.234	0.242	0.366	0.322	0.649	0.398	0.448	0.477	0.601	0.42	0.345	0.315	0.277	0.376	0.333
